PubChem BioAssay AID449735 (Southern Research Specialized Biocontainment Screening …, 2010)
Calls of active or inactive are those of the source.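 The calls were made as follows: active = drop in polymyxin IC50 at top compound dose in wild type more than twice that in PhoP-lacking strain; inactive = the rest.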

Key:
[1] = polymyxin sensitization of S. Typhimurium, late-stage follow-up, mechanism study for PhoP regulon inhibitor project, WT and phoP- strains, round 3 (AID 449735); conditions: S. Typhimurium WT vs phoP-, polymyxin IC50 shift, OD600, at 150 µM, stronger effect = higher value
[2] = system: S. Typhimurium WT vs phoP-, polymyxin IC50 shift, OD600; test: as above
[3] = measured here: WT strain IC50 shift
[4] = measured here: phoP- strain IC50 shift

| Compound | polymyxin IC50 shift difference WT - phoP- [1] | polymyxin IC50 shift [1, 3] | polymyxin IC50 shift [1, 4] | IC50 [2] [µM] |
| --- | --- | --- | --- | --- |
| O=C(Nc1ccc(I)cc1)N1CCCN(Cc2ccccc2F)C1 | -8.3 (inactive) | 9.92 | 18.2 | – |
| CCn1cc(C(=O)O)c(=O)c2cc(F)c(N3CCN(C(=S)Nc4ccccc4OC)CC3)cc21 | -0.94 (inactive) | -2.11 | -1.17 | – |
| S=C(NCCc1ccc(Cl)cc1)Nc1ccncc1 | -0.21 (inactive) | 0.05 | 0.26 | – |
| O=C(Nc1ccc(Cl)cc1)N1CCCN(Cc2ccc(Br)cc2)C1 | -1.52 (inactive) | 1.77 | 3.29 | – |
| CCn1cc(C(=O)O)c(=O)c2cc(F)c(N3CCN(C(=S)Nc4ccccc4C)CC3)cc21 | – | 15.9 | 3.07 | 30 |
| O=C(Nc1ccc(Cl)cc1)N1CCCN(Cc2ccccc2Br)C1 | -4.93 (inactive) | -2.84 | 2.09 | – |
